Counter-ions that a name gives are not always drawn. Like-named read-outs stand apart in the source and are kept apart here.
Legend:
[1] = tested on: Feline infectious peritonitis virus; assay type: cell-based; conditions: for EC50: read-out: EC50 (Visual assay), Feline infectious peritonitis virus; for Selectivity index, Feline infectious peritonitis virus: CC50/EC50 in Fcwf-4 cells
Human coronavirus OC43 = experiment: microbe, parasite or virus in culture; assay type: cell-based, Human coronavirus OC43 (HCoV-OC43); conditions: for EC50: read-out: EC50 (IFA), Human coronavirus OC43; for Selectivity index, Human coronavirus OC43: CC50/EC50 in HCT-8 cells
in vitro [2] = conditions: human
in vitro [3] = conditions: cat (Felis catus)
[4] = Betacoronavirus 1, OC43, HCT-8, 72 h

| Compound | EC50 [1] [µM] | EC50 (Human coronavirus OC43) [µM] | CC50 (in vitro [2]) [µM] | Selectivity index, Feline infectious peritonitis virus [1] | EC50 (Human coronavirus OC43; [4]) [µM] | Selectivity index, Human coronavirus OC43 (Human coronavirus OC43) | CC50 (in vitro [3]) [µM] |
| --- | --- | --- | --- | --- | --- | --- | --- |
| COc1ccc(C[C@H]2NC[C@H](O)[C@H]2OC(C)=O)cc1 [Anisomycin] | 0.023 | 0.2 ± 0.03 |  |  |  |  |  |
| CCCCCC[C@H]1C(=O)O[C@H](C)[C@H](NC(=O)c2cccc(NC=O)c2O)C(=O)O[C@@H](C)[C@@H]1OC(=O)CC(C)C [Antimycin A] |  |  | > 50 | 1.10 | 0.062 ± 0.003 | >806 | 81.9 ± 6.36 |
| O=C1C(O)=C([C@H]2CC[C@H](c3ccc(Cl)cc3)CC2)C(=O)c2ccccc21 [Atovaquone] |  |  | > 50 |  | 6.78 ± 0.73 | >7.37 | > 100 |
| CCN(CC)CCCC(C)Nc1ccnc2cc(Cl)ccc12 (stereo not drawn) [Chloroquine (diphosphate), Chloroquine] | 27.9 ± 0.72 |  | > 50 | 1.35 | 27.4 ± 2.51 | >1.82 | 37.5 |
| Cc1nc2c([nH]1)-c1ccccc1N(C(=O)c1ccc(NC(=O)c3ccccc3-c3ccccc3)cc1)CC2 [Conivaptan] | 16.9 ± 1.51 |  | > 50 |  | 12.2 ± 4.2 | >4.10 | > 100 |
| CC[C@H]1CN2CCc3cc(OC)c(OC)cc3[C@@H]2C[C@@H]1C[C@H]1NCCc2cc(OC)c(OC)cc21 [Emetine] |  |  | > 50 | 3.00 | 0.21 ± 0.07 | >238 | 0.03 |
| N#C[C@@]1(c2ccc3c(N)ncnn23)O[C@H](CO)[C@@H](O)[C@H]1O [GS-441524] |  |  | > 50 |  | 6.77 ± 0.71 | >7.39 | > 100 |
| Nc1ccn([C@@H]2O[C@H](CO)[C@@H](O)C2(F)F)c(=O)n1 [Gemcitabine (Hydrochloride), Gemcitabine] |  |  | > 50 |  | 38.6 ± 11.4 | >1.30 | > 100 |
| COC(=O)C[C@](O)(CCCC(C)(C)O)C(=O)O[C@@H]1C(OC)=C[C@]23CCCN2CCc2cc4c(cc2[C@H]13)OCO4 [Homoharringtonine] |  |  | 7.61 ± 0.6 | 1.58 | 0.29 ± 0.03 | 26.7 | 0.049 ± 0.002 |
| O=C(Nc1ccc([N+](=O)[O-])cc1Cl)c1cc(Cl)ccc1O [Niclosamide] |  |  | > 50 | 0.80 | 1.36 ± 0.56 | >36.8 | 0.23 |
| CC(=O)Oc1ccccc1C(=O)Nc1ncc([N+](=O)[O-])s1 [Nitazoxanide] |  |  | > 50 |  | 28.6 ± 7.44 | >1.75 | 4.69 |
| CC[C@H]1/C=C/C=C/C[C@@H](C)[C@H](O)[C@@](C)(O)C(=O)[C@@H](C)[C@H](O)[C@@H](C)C(=O)[C@@H](C)[C@H](O)[C@@H](C)/C=C/C(=O)O[C@@H]2[C@H](C)[C@H](CC1)O[C@]1(CC[C@H](C)[C@H](C[C@@H](C)O)O1)[C@H]2C [Oligomycin] |  | 5.22 ± 0.96 | > 50 | 1.06 | 5.2 | >9.58 | 18.8 |
| CC[C@@H](C(=O)[C@@H](C)[C@@H](O)[C@H](C)[C@@H]1O[C@@H]([C@@H](CC)C(=O)O)CC[C@@H]1C)[C@H]1O[C@]2(C=C[C@@H](O)[C@]3(CC[C@@](C)([C@H]4CC[C@](O)(CC)[C@H](C)O4)O3)O2)[C@H](C)C[C@@H]1C [Salinomycin] |  |  | > 50 | 0.49 | 5.78 ± 2.17 | >8.65 | 0.34 ± 0.1 |
| CCN(CC)CCOc1ccc2c(c1)C(=O)c1cc(OCCN(CC)CC)ccc1-2 [Tilorone (dihydrochloride), Tilorone] |  |  | 35.9 ± 2.97 | 0.84 | 26 ± 2.24 | 1.38 | 9.38 |
| CC(C)[C@@H]1NC(=O)[C@H](C)OC(=O)[C@@H](C(C)C)NC(=O)[C@@H](C(C)C)OC(=O)[C@H](C(C)C)NC(=O)[C@H](C)OC(=O)[C@@H](C(C)C)NC(=O)[C@@H](C(C)C)OC(=O)[C@H](C(C)C)NC(=O)[C@H](C)OC(=O)[C@@H](C(C)C)NC(=O)[C@@H](C(C)C)OC1=O [Valinomycin] |  | 0.41 ± 0.02 | > 50 | 2.45 | 0.4 | >122 | 3.98 ± 0.39 |
| CS(=O)(=O)c1ccc(C(=O)Nc2ccc(Cl)c(-c3ccccn3)c2)c(Cl)c1 [Vismodegib] |  |  | > 50 |  | 47.6 ± 3.29 | >1.05 | > 100 |

Reference: paper PMC7245249 (Biomedical Journal, 2020)
